The numbers were not newly measured in publication PMC8147660 (The Prostate, 2018), which cites them from elsewhere.

In data set [1] the target is chymotrypsin. As to conditions: read-out: Ki for chymotrypsin; described in previous studies.
In data set [2] the target is PSA. The conditions noted are these: read-out: PSA Ki; described in previous studies.
The conditions of data set [3]: cleared via A2M-receptor/LRP in the liver.

As for Ahx-FSQn(boro)Bpg, the Ki in data set [1] is 580 nM; in data set [2], 72 nM.
As to “PSA-A2M: PSA complexed with the serum protease inhibitor alpha-2-macroglobulin”, in data set [3], the “Plasma half-life of the complex” value is on record as “a few minutes”.
